Test results: article PMC10447463, “Data-mining unveils structure–property–activity correlation of viral infectivity enhancing self-assembling peptides” (Nature Communications, 2023)
Read-outs that look alike come from different tables or passages of the source.

How the values were obtained:
[1] = assay type: physicochemical; conditions: for ThT Cat. / ThT-Fluorescence (categorical): ThT-active if fluorescence at least twice the control
Summary of the method: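 Fibrils (1 mg/mL solution) were mixed with 50 µM ThT in PBS for 15 min at RT, and fluorescence was read at λex 440/λem 488 nm against a PBS blank, as a triplicate mean ± SD. Zeta potential came from electrophoretic mobility (Smoluchowski) after 1 d aggregation at 1 mg/mL in PBS pH 7.4, diluted into 1 mM KCl.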

[2] = Turbidity, derived count rate of scattered light; assay type: physicochemical; conditions: for Count Rate: derived count rate of scattered light (turbidity); for Log10 Count Rate: turbidity, derived count rate of scattered light, data of Figure 2D
[3] = tested on: HIV-1 infection of TZM-bl cells; assay: HIV-1 infectivity enhancement assay, β-galactosidase luminescence; assay type: cell-based; conditions: for Rel-EFC / Log10 Infection Rel EFC: 1.3 µM peptide; for Rel-EFC: infection relative to EF-C (QCKIKQIINMWQ = 1); for Log10 Infection Rel EFC: log10 of infection relative to EF-C; for Log Infectivity: Log10 infection relative to EF-C, TZM-bl cells, asymmetric std dev errors; for Log10 Infection Rel EF-C: HIV-1 infection of TZM-bl cells; for Log10 of Rel to EFC (Feb2021): Log10 of infection relative to EF-C, all peptides of FigS16; for Log10 Inf. rel. to EF-C: log10 of HIV-1 infection of TZM-bl cells relative to EF-C (EF-C = 0); for Abs. Inf.: absolute infection signal, HIV-1 on TZM-bl cells, β-galactosidase luminescence
[4] = ThT fluorescence category, 1 if Rel. ThT >2
[5] = Fig. S7 panel A (plotted against β-sheet content)
[6] = Log10 of infection rate relative to EF-C, Figure 3A source data
[7] = infection rate relative to EF-C, log10, data of Figure 2D
[8] = infection rate relative to EF-C, log10, source data of Figure 2C
[9] = Fig. S7 panel B (plotted against CR), rounded to two decimals

| Substance | Tht category (> 2 to blank = +) ([1]; Fig S10 panel D) | ThT Cat, ([1]; ThT category, 1 if Rel. ThT >2) | ThT Cat. [1, 4] | ThT Cat. / ThT-Fluorescence (categorical) [1] | Count Rate [2] | Log10 Count Rate [2] | Rel-EFC [3] | Log10 Infection Rel EFC [3] | Log Infectivity [3, 5] | Log10 Infection Rel EF-C [3, 6] | Log10 Infection Rel EF-C [3, 7] | Log10 Infection Rel EF-C [3, 8] | Log10 of Rel to EFC (Feb2021) [3] | Log10 Inf. rel. to EF-C [3] | ThT Cat. ([1]; Fig S10 panel E) | ThT Cat. ([1]; ThT category, 1 if Rel. ThT >2) | Log Infectivity [3, 9] | Abs. Inf. [3] | Tht category (> 2 to blank = +) ([1]; FigS12 panel A) | ThT Cat, ([1]; FigS12 panel B) |
| --- | --- | --- | --- | --- | --- | --- | --- | --- | --- | --- | --- | --- | --- | --- | --- | --- | --- | --- | --- | --- |
| KIKIQINMAQ | 0 (ThT-inactive (N-Fold <2)) | 0 (ThT-inactive (N-Fold <2)) | 0 (ThT-inactive (N-Fold <2)) | 0 (ThT-inactive (N-Fold <2)) | 5859 | 3.768 | 0,21 | -0,67 | -0.6722 | -0.67 | -0.6722 | -0.6722 | -0.67 | -0.6722 | – | – | – | – | – | – |
| KIKIQINMW | 1 (ThT. Cat is 1, if Rel. ThT >2) | 1 (ThT. Cat is 1, if Rel. ThT >2) | 1 (ThT. Cat is 1, if Rel. ThT >2) | 1 (ThT. Cat is 1, if Rel. ThT >2) | 239.6 | 2.38 | 2,16 | 0,33 | 0.3339 | 0.33 | 0.3339 | 0.3339 | 0.33 | 0.3339 | – | – | – | – | – | – |
| KIKIQINMWA | 0 (ThT-inactive (N-Fold <2)) | 0 (ThT-inactive (N-Fold <2)) | 0 (ThT-inactive (N-Fold <2)) | 0 (ThT-inactive (N-Fold <2)) | 1101.2 | 3.042 | 0,69 | -0,16 | -0.1642 | -0.16 | -0.1642 | -0.1642 | -0.16 | -0.1642 | – | – | – | – | – | – |
| KIKIQINMWQ | 1 (ThT. Cat is 1, if Rel. ThT >2) | 1 (ThT. Cat is 1, if Rel. ThT >2) | – | 1 (ThT. Cat is 1, if Rel. ThT >2) | 2196 | 3.342 | 0,3 | -0,53 | -0.5276 | -0.53 | -0.5276 | -0.5276 | -0.53 | -0.5276 | 1 (ThT. Cat is 1, if Rel. ThT >2) | 1 (ThT. Cat is 1, if Rel. ThT >2) | -0.53 | 6650 | – | – |
| KIKQIIN | 0 (ThT-inactive (N-Fold <2)) | 0 (ThT-inactive (N-Fold <2)) | 0 (ThT-inactive (N-Fold <2)) | 0 (ThT-inactive (N-Fold <2)) | 64.03 | 1.806 | 0,04 | -1,4 | -1.4 | -1.4 | -1.4 | -1.4 | – | -1.4 | – | – | – | – | 0 (ThT-inactive (N-Fold <2)) | 0 (ThT-inactive (N-Fold <2)) |
| KIKQIINM | 0 (ThT-inactive (N-Fold <2)) | 0 (ThT-inactive (N-Fold <2)) | 0 (ThT-inactive (N-Fold <2)) | 0 (ThT-inactive (N-Fold <2)) | 2481 | 3.395 | 0,45 | -0,35 | -0.3458 | -0.35 | -0.3458 | -0.3458 | -0.35 | -0.3458 | 0 (ThT-inactive (N-Fold <2)) | – | -0.35 | – | – | – |
| KIKQIINMWQ | 1 (ThT. Cat is 1, if Rel. ThT >2) | 1 (ThT. Cat is 1, if Rel. ThT >2) | – | 1 (ThT. Cat is 1, if Rel. ThT >2) | 615.5 | 2.789 | 0,35 | -0,46 | -0.4604 | -0.46 | -0.4604 | -0.4604 | -0.46 | -0.4604 | 1 (ThT. Cat is 1, if Rel. ThT >2) | 1 (ThT. Cat is 1, if Rel. ThT >2) | -0.46 | 9363 | – | – |
